Calls of active or inactive are those of the source. The rule behind the calls is not given here.
Assays:
Assay in all cases: CYP450 and receptor off-target profile – biochemical, Ricerca HitProfilingScreen, selectivity assay for GPR7 antagonist project, late-stage follow-up (AID 504401)
[1] = biological target: Muscarinic acetylcholine receptor M3 (Homo sapiens) (UniProt P20309); settings: Ricerca radioligand binding and CYP450 panel, at 10 µM, active compounds read high
Adrenergic beta1 = settings: Ricerca radioligand binding and CYP450 panel, at 10 µM, active compounds read high
[2] = test system: Norepinephrine Transporter (NET); settings: Ricerca radioligand binding and CYP450 panel, at 10 µM, active compounds read high
[3] = biological target: Voltage-gated inwardly rectifying potassium channel KCNH2 (Homo sapiens) (UniProt Q12809); settings: Ricerca radioligand binding and CYP450 panel; Potassium Channel hERG; at 10 µM; active compounds read high
Voltage-gated inwardly rectifying potassium channel KCNH2 (Homo sapiens), sequence (Q12809 whole entry, looked up): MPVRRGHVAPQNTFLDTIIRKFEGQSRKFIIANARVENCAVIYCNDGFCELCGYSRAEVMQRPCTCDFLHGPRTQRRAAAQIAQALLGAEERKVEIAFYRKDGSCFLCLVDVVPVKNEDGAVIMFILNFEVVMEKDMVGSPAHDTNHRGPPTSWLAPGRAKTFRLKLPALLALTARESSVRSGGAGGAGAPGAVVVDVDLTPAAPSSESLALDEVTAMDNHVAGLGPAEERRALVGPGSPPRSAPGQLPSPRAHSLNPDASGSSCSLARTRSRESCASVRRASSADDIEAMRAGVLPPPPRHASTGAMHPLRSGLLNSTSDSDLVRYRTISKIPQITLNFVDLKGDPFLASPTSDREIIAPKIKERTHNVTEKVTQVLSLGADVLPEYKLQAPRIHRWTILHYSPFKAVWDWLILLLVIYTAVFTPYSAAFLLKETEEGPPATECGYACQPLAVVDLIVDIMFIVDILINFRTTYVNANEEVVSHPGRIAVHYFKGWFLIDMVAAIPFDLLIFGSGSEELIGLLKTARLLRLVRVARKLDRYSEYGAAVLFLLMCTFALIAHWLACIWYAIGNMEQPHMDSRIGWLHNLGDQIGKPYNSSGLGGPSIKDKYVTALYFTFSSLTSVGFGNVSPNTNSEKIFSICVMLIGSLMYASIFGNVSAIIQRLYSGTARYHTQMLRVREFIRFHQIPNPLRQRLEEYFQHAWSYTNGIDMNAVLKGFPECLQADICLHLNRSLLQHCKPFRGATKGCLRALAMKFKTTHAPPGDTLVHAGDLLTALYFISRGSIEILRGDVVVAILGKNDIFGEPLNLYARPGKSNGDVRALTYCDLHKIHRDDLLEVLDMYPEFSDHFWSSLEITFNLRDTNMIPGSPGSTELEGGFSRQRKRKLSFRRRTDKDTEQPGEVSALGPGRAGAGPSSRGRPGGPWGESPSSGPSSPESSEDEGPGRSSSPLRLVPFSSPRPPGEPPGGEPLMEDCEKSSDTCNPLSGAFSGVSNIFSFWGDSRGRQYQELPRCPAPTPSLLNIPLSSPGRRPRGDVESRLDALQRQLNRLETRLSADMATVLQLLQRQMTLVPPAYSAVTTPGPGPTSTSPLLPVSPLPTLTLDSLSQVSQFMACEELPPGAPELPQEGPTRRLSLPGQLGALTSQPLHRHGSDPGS

[4] = biological target: Muscarinic acetylcholine receptor M2 (Homo sapiens) (UniProt P08172); settings: Ricerca radioligand binding and CYP450 panel, at 10 µM, active compounds read high
Muscarinic acetylcholine receptor M2 (Homo sapiens), sequence (P08172 whole entry, looked up): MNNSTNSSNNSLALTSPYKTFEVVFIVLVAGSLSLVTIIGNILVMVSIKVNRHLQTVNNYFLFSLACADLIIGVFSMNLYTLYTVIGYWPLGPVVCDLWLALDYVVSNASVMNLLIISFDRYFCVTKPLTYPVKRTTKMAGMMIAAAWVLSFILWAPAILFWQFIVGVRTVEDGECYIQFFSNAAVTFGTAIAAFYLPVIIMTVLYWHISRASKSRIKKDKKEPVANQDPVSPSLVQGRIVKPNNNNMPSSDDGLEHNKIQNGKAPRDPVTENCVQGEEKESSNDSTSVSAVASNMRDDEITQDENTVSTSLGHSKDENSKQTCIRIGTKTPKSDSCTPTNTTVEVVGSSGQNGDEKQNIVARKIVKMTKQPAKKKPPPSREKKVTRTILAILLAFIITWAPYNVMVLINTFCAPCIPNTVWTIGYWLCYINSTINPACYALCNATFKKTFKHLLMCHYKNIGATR

Opiate mu (OP3, MOP) = settings: Ricerca radioligand binding and CYP450 panel, at 10 µM, active compounds read high
Adenosine A1 = settings: Ricerca radioligand binding and CYP450 panel, at 10 µM, active compounds read high
[5] = biological target: Cytochrome P450 3A4 (Homo sapiens) (UniProt P08684); settings: Ricerca radioligand binding and CYP450 panel; CYP450 3A4; at 10 µM; active compounds read high
[6] = biological target: D(1A) dopamine receptor (Homo sapiens) (UniProt P21728); settings: Ricerca radioligand binding and CYP450 panel; Dopamine D1; at 10 µM; active compounds read high
D(1A) dopamine receptor (Homo sapiens), sequence (P21728 whole entry, looked up): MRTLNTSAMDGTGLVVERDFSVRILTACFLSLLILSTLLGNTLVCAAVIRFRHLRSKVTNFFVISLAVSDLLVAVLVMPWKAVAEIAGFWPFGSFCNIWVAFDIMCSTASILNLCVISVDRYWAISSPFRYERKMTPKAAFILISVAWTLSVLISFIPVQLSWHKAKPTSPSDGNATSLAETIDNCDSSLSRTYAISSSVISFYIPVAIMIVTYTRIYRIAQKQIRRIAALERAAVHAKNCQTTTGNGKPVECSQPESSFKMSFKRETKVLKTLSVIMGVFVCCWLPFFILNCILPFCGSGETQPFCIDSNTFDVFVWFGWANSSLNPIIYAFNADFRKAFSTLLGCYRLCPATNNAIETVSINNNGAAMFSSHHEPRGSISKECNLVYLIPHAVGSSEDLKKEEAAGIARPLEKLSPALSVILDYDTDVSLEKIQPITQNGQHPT

[7] = biological target: Cytochrome P450 2C9 (Homo sapiens) (UniProt P11712); settings: Ricerca radioligand binding and CYP450 panel; CYP450 2C9; at 10 µM; active compounds read high
Cytochrome P450 2C9 (Homo sapiens), sequence (P11712 whole entry, looked up): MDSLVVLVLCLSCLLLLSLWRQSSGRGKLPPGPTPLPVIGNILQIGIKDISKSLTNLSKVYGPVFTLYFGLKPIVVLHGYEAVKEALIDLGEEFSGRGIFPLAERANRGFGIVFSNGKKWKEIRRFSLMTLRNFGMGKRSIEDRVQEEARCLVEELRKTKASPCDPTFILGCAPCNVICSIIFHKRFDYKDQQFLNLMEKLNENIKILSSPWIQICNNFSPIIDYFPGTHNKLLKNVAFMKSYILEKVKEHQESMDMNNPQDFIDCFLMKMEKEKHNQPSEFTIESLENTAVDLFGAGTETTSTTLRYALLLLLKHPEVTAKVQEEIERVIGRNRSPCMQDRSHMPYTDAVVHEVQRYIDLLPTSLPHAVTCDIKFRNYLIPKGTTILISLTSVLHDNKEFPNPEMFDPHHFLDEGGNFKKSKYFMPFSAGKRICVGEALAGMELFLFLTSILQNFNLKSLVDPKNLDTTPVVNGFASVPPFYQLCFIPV

Sodium Channel = settings: Ricerca radioligand binding and CYP450 panel, site 2, at 10 µM, active compounds read high
Sigma 1 = settings: Ricerca radioligand binding and CYP450 panel, at 10 µM, active compounds read high
Adrenergic alpha1B = settings: Ricerca radioligand binding and CYP450 panel, at 10 µM, active compounds read high
Dopamine D2S = settings: Ricerca radioligand binding and CYP450 panel, at 10 µM, active compounds read high
GABAA = settings: Ricerca radioligand binding and CYP450 panel, central, at 10 µM, active compounds read high
[8] = test system: Alpha-2A adrenergic receptor (Homo sapiens) + Histamine H1 receptor (Homo sapiens) + Mu-type opioid receptor (Homo sapiens); settings: Ricerca radioligand binding and CYP450 panel; at 10 µM; active compounds read high
Prostanoid EP4 = settings: Ricerca radioligand binding and CYP450 panel, at 10 µM, active compounds read high
[9] = biological target: Alpha-2A adrenergic receptor (Homo sapiens) (UniProt P08913); settings: Ricerca radioligand binding and CYP450 panel; Adrenergic alpha2A; at 10 µM; active compounds read high
Alpha-2A adrenergic receptor (Homo sapiens), sequence (P08913 whole entry, looked up): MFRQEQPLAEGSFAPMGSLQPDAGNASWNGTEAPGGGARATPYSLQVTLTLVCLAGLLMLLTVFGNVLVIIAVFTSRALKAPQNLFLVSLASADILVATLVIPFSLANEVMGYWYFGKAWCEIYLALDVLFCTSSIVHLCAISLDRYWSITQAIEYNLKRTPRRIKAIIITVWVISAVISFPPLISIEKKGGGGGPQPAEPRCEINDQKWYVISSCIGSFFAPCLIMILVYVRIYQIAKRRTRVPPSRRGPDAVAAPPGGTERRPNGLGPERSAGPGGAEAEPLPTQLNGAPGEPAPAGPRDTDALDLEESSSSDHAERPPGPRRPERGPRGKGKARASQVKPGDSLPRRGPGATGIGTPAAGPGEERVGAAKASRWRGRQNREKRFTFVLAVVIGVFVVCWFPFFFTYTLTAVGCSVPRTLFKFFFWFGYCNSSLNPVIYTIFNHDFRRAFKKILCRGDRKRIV

[10] = biological target: 5-hydroxytryptamine receptor 2B (Homo sapiens) (UniProt P41595); settings: Ricerca radioligand binding and CYP450 panel; Serotonin (5-Hydroxytryptamine) 5-HT2B; at 10 µM; active compounds read high
5-hydroxytryptamine receptor 2B (Homo sapiens), sequence (P41595 whole entry, looked up): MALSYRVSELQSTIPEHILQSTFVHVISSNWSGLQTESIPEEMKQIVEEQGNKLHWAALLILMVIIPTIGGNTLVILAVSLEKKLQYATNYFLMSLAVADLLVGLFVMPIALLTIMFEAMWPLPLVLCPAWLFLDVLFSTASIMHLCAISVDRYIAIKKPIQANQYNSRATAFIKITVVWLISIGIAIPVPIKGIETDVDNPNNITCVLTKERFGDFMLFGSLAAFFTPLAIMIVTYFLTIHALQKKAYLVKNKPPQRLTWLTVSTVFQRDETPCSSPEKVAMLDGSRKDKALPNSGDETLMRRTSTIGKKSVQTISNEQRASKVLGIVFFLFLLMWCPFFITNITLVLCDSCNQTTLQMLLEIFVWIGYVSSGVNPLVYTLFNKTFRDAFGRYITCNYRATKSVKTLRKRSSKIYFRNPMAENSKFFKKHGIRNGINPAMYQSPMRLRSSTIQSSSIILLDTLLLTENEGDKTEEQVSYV

CYP450 2C19 = settings: Ricerca radioligand binding and CYP450 panel, at 10 µM, active compounds read high
Histamine H1 = settings: Ricerca radioligand binding and CYP450 panel, at 10 µM, active compounds read high
Nicotinic Acetylcholine = settings: Ricerca radioligand binding and CYP450 panel, at 10 µM, active compounds read high
Calcium Channel L-Type = settings: Ricerca radioligand binding and CYP450 panel, Dihydropyridine site, at 10 µM, active compounds read high
Adenosine A2A = settings: Ricerca radioligand binding and CYP450 panel, at 10 µM, active compounds read high
[11] = biological target: Cytochrome P450 2D6 (Homo sapiens) (UniProt P10635); settings: Ricerca radioligand binding and CYP450 panel; CYP450 2D6; at 10 µM; active compounds read high
Cytochrome P450 2D6 (Homo sapiens), sequence (P10635 whole entry, looked up): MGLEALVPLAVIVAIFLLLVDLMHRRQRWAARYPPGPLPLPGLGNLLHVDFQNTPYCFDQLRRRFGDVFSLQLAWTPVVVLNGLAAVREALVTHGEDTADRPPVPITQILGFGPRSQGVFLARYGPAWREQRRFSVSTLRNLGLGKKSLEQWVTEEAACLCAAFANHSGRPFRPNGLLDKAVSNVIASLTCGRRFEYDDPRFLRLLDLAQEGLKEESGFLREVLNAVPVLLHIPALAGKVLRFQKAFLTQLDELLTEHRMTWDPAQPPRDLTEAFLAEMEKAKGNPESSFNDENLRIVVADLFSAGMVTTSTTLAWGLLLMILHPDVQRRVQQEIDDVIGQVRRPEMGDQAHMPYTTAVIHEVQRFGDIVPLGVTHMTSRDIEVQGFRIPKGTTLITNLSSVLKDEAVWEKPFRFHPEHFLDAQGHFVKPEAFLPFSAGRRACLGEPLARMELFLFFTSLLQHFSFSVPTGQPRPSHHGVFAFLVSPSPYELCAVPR

[12] = biological target: Cytochrome P450 1A2 (Homo sapiens) (UniProt P05177); settings: Ricerca radioligand binding and CYP450 panel; CYP450 1A2; at 10 µM; active compounds read high
Cannabinoid CB1 = settings: Ricerca radioligand binding and CYP450 panel, at 10 µM, active compounds read high
Adrenergic alpha1A = settings: Ricerca radioligand binding and CYP450 panel, at 10 µM, active compounds read high
Glutamate NMDA = settings: Ricerca radioligand binding and CYP450 panel, Phencyclidine site, at 10 µM, active compounds read high
[13] = biological target: Beta-2 adrenergic receptor (Homo sapiens) (UniProt P07550); settings: Ricerca radioligand binding and CYP450 panel; Adrenergic beta2; at 10 µM; active compounds read high
Beta-2 adrenergic receptor (Homo sapiens), sequence (P07550 whole entry, looked up): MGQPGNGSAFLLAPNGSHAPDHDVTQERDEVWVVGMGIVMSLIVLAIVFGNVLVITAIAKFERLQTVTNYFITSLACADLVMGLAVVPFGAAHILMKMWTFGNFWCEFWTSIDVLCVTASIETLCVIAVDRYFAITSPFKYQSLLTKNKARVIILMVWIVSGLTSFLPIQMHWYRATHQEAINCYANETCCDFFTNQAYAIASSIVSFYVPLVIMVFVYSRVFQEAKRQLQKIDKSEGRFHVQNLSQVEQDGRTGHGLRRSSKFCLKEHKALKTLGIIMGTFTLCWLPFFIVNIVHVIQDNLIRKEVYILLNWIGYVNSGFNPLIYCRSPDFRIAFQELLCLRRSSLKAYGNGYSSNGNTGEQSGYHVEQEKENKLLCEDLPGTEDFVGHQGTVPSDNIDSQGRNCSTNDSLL

Muscarinic acetylcholine receptor M3 (Homo sapiens), sequence (P20309 whole entry, looked up): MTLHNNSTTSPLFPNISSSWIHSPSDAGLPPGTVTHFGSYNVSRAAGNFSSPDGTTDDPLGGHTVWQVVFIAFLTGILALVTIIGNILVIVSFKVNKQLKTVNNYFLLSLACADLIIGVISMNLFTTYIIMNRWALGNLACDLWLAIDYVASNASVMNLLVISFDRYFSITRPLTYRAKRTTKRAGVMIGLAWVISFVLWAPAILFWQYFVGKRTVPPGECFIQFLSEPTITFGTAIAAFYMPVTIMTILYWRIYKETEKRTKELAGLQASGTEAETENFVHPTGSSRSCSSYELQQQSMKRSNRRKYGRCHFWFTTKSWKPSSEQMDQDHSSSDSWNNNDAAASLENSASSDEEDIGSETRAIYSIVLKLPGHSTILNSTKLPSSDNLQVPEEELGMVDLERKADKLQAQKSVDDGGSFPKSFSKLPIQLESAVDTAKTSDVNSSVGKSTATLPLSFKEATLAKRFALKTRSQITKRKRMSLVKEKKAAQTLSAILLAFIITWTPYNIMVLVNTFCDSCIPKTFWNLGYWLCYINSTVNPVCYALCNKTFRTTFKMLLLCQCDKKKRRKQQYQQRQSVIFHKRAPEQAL

With `COc1ccc(Oc2c(Cl)cnn(-c3cc(C)cc(C)c3)c2=O)cc1` the inhibition [1] was 0% (inactive), the inhibition (Adrenergic beta1) was 13% (inactive) and the inhibition [2] was 47% (inactive). For the same molecule, the inhibition [3] was 13% (inactive), the inhibition [4] was 2% (inactive) and the inhibition (Opiate mu (OP3, MOP)) was -7% (inactive). The inhibition (Adenosine A1) was 19% (inactive), the inhibition [5] was 53% and the inhibition [6] was 5% (inactive). For the same molecule, the inhibition [7] was 5% (inactive), the inhibition (Sodium Channel) was 23% (inactive) and the inhibition (Sigma 1) was -4% (inactive). For the same molecule, the inhibition (Adrenergic alpha1B) was 3% (inactive), the inhibition (Dopamine D2S) was 13% (inactive) and the inhibition (GABAA; Flunitrazepam site) was -1% (inactive). The inhibition (GABAA; Muscimol site) was 4% (inactive), the inhibition [8] was -3% (inactive) and the inhibition (Prostanoid EP4) was 2% (inactive). The inhibition [9] was 8% (inactive), the inhibition [10] was 8% (inactive) and the inhibition (CYP450 2C19) was -3% (inactive). The inhibition (Histamine H1) was 16% (inactive), the inhibition (Nicotinic Acetylcholine) was -22% (inactive) and the inhibition (Calcium Channel L-Type) was 26% (inactive). For the same molecule, the inhibition (Adenosine A2A) was 14% (inactive), the inhibition [11] was 16% (inactive) and the inhibition [12] was 11% (inactive). The inhibition (Cannabinoid CB1) was 25% (inactive), the inhibition (Adrenergic alpha1A) was 2% (inactive) and the inhibition (Glutamate NMDA) was -3% (inactive). The inhibition [13] was -2% (inactive).

Reference: PubChem BioAssay AID504401 (The Scripps Research Institute Molecular Screening Center, 2011)
